Laboratory results published in patent US11174216B2, “Lipids that increase insulin sensitivity and methods of using the same” (Beth Israel Deaconess Medical Center, Inc., priority 2012, dated 2021).

How the values were obtained:
STC-1 cells [1] = assay: ERK phosphorylation in STC-1 cells (immunoblot); assay type: cell-based; details: 15 minutes
Procedure: For the experiments summarized in FIG. 50, STC-1 cells were incubated with 9-PAHSA, 5-PAHSA or 9-OAHSA at the indicated concentrations. Cells were harvested and lysed and proteins were separated by SDS PAGE and transferred onto nitrocellulose filters. The phosphorylation of ERK and the amount of total ERK was determined by immunoblotting with antibodies specific for total or phosphor-ERK. DMSO was the control. For ERK phosphorylation, cells were serum deprived overnight and stimulated with FAHFAs or vehicle as indicated for 15 minutes followed by lysis in RIPA buffer and analysis by SDS-PAGE

STC-1 cells [2] = assay: GLP-1 secretion in STC-1 enteroendocrine cells (ELISA); assay type: cell-based
Procedure: For the experiments summarized in FIG. 51 STC-1 cells were incubated with vehicle (DMSO), 9-PAHSA, 5-PAHSA or 9-OAHSA at the indicated concentrations or lineolic acid (100 uM) as a positive control. Media was harvested and GLP-1 was measured by ELISA.
For the experiments summarized in FIG. 52, the same protocol as described for FIG. 51 was used, except in this experiment a time course was performed. For both FIG. 51 and FIG. 52, for GLP-1 secretion STC1 cells were washed 3× with serum free culture media followed by stimulation with FAHFAs or vehicle at the indicated concentrations and timepoints. Levels of active GLP-1 were measured by ELISA.

GPR120 = target: T1, GPR120 (Homo sapiens, UniProt Q5NUL3); assay: PATHHUNTER beta-Arrestin GPCR assay; assay type: cell-based
T1 sequence (Q5NUL3 1-361): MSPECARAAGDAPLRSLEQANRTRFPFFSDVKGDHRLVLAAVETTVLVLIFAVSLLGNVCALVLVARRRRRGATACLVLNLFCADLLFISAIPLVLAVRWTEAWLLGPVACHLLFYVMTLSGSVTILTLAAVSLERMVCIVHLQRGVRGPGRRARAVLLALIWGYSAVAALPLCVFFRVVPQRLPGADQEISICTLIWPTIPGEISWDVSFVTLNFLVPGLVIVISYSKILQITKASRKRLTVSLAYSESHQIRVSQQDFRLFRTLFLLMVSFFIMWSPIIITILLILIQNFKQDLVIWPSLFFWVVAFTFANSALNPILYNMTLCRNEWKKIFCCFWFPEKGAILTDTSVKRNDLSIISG
Source text: For the experiments summarized in FIGS. 53-55, the fragment based GPCR assay from DiscoveRx (PATHHUNTER® β-Arrestin assay) was used to as per manufacturer's instructions to determine activation of specific GPCRs as indicated in FIGS. 53-55.

[3] = system: FA-CoA:HFA acyltransferase activity; assay: FAHFA biosynthesis (FA-CoA:HFA acyltransferase) assay in tissue lysates; assay type: biochemical; details: 10 uM 9-HSA and oleoyl-CoA, increasing doses
Procedure: In order to understand the biology of the new FAHFA lipid class more completely, experiments were performed to identify an enzyme capable of synthesizing FAHFAs as well. By structural analogy to other lipid metabolites such as diacylglycerols or wax esters, it was hypothesized that hydroxy fatty acids were the immediate precursors to FAHFAs. Candidate acyltransferases were identified by reacting the common biochemical acyl carrier, oleoyl-CoA, with 9-hydroxystearic acid (9-HSA) in the presence of cell lysates or tissue membrane lysates to form 9-OAHSA (Scheme 2; FIG. 61 ).
After first establishing that FA-CoA:HFA acyltransferase activity was membrane-localized in liver (not shown), we isolated membrane fractions from liver or WAT tissue lysate by ultracentrifugation, then resuspended the pellets in PBS buffer and diluted to 1 mg/ml protein concentration. […] The reaction mixtures were extracted with ethyl acetate, concentrated, and reconstituted in 1:1 chloroform:methanol for MS analysis. Formation of 9-OAHSA was measured by MS/MS, with which the appearance of the parent ion m/z 563 was monitored.
In light of the above results acyltransferase families that have been reported to have a membrane-bound localization and to have the ability to conjugate FA-CoA to a hydrophobic alcohol were targeted. […]

HepG2 cells = assay: PPAR agonist studies, FAHFA levels in HepG2 cells; assay type: cell-based; details: 0.5 uM and 1.0 uM, 48 hr, cells and media
Procedure: In this example, HepG2 cells were seeded in 6-well plates. At 80% confluence, cells were treated with two different concentrations [0.5 uM and 1.0 uM] of an agonist of PPAR α (WY14643), δ (CAY10592), or γ (Pioglitazone) for 48 hr in HepG2 media with 2.5% FBS. At the end of incubation, 500 uL of media was collected and the cells were collected in PBS for lipid extraction. Lipids were extracted from both media and cells to quantitate the FAHFA levels by Mass Spec. The results are summarized in FIGS. 33 and 34 for the cells and media, respectively.
HepG2 cells were seeded in 6-well plate. At 80% confluence, cells were treated with two different concentrations [0.5 μM and 1.0 μM] of PPAR α/δ/γ agonists for 48 h in HepG2 media containing 2.5% fetal bovine serum (PPAR α agonist—WY14643; PPAR δ agonist—CAY10592; PPAR γ agonist—Pioglitazone). At the end of incubation, 500 μL of media and the cells were collected in PBS. Lipids were extracted as per Folch Method from both media and cells to quantitate the FAHFA levels by Mass Spec. Briefly, chloroform and methanol were added to the media or cells in 2:1 ratio and sonicated for 2-3 min and centrifuged at 3000 rpm for 10 min at 4° C. […] Calculated volume of chloroform is added to the dissolve the lipids and 2 μL of injection volume was used to analyze FAHFAs through Mass spec. […]

[4] = system: FAHFA hydrolysis activity in liver lysate
[5] = system: carboxyl ester lipase (CEL)
[6] = system: FAHFA hydrolysis activity in pancreas membrane lysate; assay: FAHFA hydrolysis activity assay, pancreas membrane lysate; details: pancreas lysate

## CCCCCCCC/C=C\CCCCCCCC(=O)OC(CCCCCCCCC)CCCCCCCC(=O)O (stereo not shown) [9-OAHSA]
STC-1 cells [1]
  ERK phosphorylation: induce ERK phosphorylation
STC-1 cells [2]
  GLP-1 secretion: induce GLP-1 secretion
GPR120
  activation of GPR120: but not 9OAHSA, activate GPR120

## O=C(Nc1ccccc1)Nc1ccc(-c2ccc(C(=O)[C@@H]3CCC[C@H]3C(=O)O)cc2)cc1 [A922500]
[3]
  9-OAHSA levels (FAHFA production): no change

## O=C(O)COc1ccc(SCC=C(c2ccc(Br)cc2)c2ccc(Br)cc2)cc1Cl [CAY10592]
HepG2 cells
  FAHFA production in liver cells: stimulate FAHFA production

## CCCCCCCCCCC(C)(C)C(=O)Nc1c(OC)cc(OC)cc1OC [CI976]
[3]
  9-OAHSA levels (FAHFA production): no change

## C[C@H](CCC(=O)NCCS(=O)(=O)O)[C@H]1CC[C@H]2[C@@H]3[C@H](O)C[C@@H]4C[C@H](O)CC[C@]4(C)[C@H]3C[C@H](O)[C@]12C [NaTC, sodium taurocholate, reference compound]
[4]
  effect on FAHFA hydrolysis: not enhanced
[5]
  effect on FAHFA hydrolysis: enhanced
[6]
  effect on FAHFA hydrolysis: markedly increased

## Cc1cccc(Nc2cc(Cl)nc(SCC(=O)O)n2)c1C [WY14643]
HepG2 cells
  FAHFA production in liver cells: stimulate FAHFA production
